Measured values published in patent publication US20070275935A1, “Estratriene Derivatives” (priority 2003, published 2007).

Tests used:
[1] = system: Human airway smooth muscle (HASM) cells; test: Thrombin-induced proliferation of human airway smooth muscle (HASM) cells, cell number after 48 h; format: cell-based; conditions: for Cell number (% control) Thrombin (0.3 U/ml): 30 min pre-incubation, mean ± SEM (n), without analogue 133.5 ± 4.1; for Cell number (% control) Thrombin (0.3 U/ml) / inhibition of thrombin-mediated HASM proliferation, in words (FIG. 1): 48 h; for HASM-Thr pIC50 / IC50: negative log of the concentration that reduces the thrombin-induced proliferative response by 50%, pIC50 of 4.00 = inactive; for HASM- Thr pIC25 / HASM- Thr pIC75: two site model, thrombin-induced proliferation; for HASM- Thr pIC25: first phase (inhibition up to 50%); for HASM- Thr pIC75: second phase (inhibition up to 100%); for inhibition of thrombin-mediated HASM proliferation, in words (FIG. 1): thrombin 0.3 U/ml; for IC50: Homo sapiens, read-out: HASM-Thr pIC50 (converted)
Procedure, shortened: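 Primary human bronchial smooth muscle cells seeded at 1.5×10^4 cells/cm², serum-starved 24 h, pre-incubated with compound 30 min, then stimulated 48 h with thrombin 0.3 U/ml. Cells counted by haemocytometer with trypan blue; pIC50 as negative log concentration halving proliferative response.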

[2] = biological target: T1, Estrogen Receptor (ER) (Rattus norvegicus, UniProt P06211); test: Estrogen receptor binding assay, 3H-estradiol displacement from rat uterine cytosol; conditions: for ER affinity (pIC50 ^3H-E2 displacement): rat uterine cytosol, 0.2 nM [3H]-E2, tested up to 10 μM; for displacement of ^3H-Estradiol, in words: concentrations up to 10 μM; for IC50: read-out: ER-RLB pIC50 (converted)
T1 construct: using rat uterine cytosol as a source of ER; from tissue; host or cells: rat uterus, cytosol fraction (30000 x g supernatant)
T1 sequence (P06211 1-600): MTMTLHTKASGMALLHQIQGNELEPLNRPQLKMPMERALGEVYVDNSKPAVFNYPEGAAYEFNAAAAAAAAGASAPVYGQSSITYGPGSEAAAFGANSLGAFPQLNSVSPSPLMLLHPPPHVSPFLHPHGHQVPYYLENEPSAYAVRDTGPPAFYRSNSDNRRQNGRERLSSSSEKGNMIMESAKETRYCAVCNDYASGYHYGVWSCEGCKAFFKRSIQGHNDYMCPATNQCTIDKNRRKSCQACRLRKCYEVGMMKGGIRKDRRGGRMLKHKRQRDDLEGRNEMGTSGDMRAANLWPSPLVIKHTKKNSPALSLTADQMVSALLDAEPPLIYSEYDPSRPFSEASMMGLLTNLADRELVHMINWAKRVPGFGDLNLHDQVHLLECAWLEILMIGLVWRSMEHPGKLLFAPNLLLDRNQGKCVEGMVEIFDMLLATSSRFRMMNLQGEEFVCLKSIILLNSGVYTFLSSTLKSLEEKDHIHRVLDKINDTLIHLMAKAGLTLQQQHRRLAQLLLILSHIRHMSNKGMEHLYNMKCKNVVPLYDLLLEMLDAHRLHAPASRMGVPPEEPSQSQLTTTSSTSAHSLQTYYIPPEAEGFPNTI
Procedure, shortened: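 Cytosol from Brown Norway rat uteri, homogenised in 10 mM Tris pH 7.4 with EDTA, glycerol and PMSF, spun at 30000×g, diluted to about 1 mg/ml protein.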

[3] = 3H-estradiol displacement, cytosolic preparations of rat uterus, pIC50 of 4.00 = inactive

Row | SMILES | Cell number (% control) Thrombin (0.3 U/ml) ([1]; analogue 10 μM) | HASM-Thr pIC50 [1] | HASM- Thr pIC25 [1] | HASM- Thr pIC75 [1] | ER affinity (pIC50 ^3H-E2 displacement) [2] | Cell number (% control) Thrombin (0.3 U/ml) ([1]; analogue 1 μM) | inhibition of thrombin-mediated HASM proliferation, in words (FIG. 1) [1] | displacement of ^3H-Estradiol, in words [2] | ER-RLB pIC50 [2, 3] | IC50 [1] [nM] | IC50 [2, 3] [nM]
1 | COc1cc2c(cc1O)CC[C@@H]1[C@@H]2CC[C@]2(C)[C@@H](O)CC[C@@H]12 [2-methoxyestradiol, reference compound] | 100.9 ± 8.1 (13) % control | 5.49 | 5.94 | 4.98 | 6.8 | – | – | – | – | – | –
2 | COc1cc2c(cc1O)C(=NOCc1ccc([N+](=O)[O-])cc1)C[C@@H]1[C@@H]2CC[C@]2(C)[C@@H](O)CC[C@@H]12 [CP-DM-2-11-7, 2-methoxy-6-(4-nitrobenzyloxy)iminoestradiol] | – | 6.90 | 8.82 | 5.66 | <5.0 | 111.1 ± 6.9 (13) % control | inhibitory activity on proliferation of HASM cells over a wide concentration range (10 nM to 10 μM) | little or no detectable displacement | – | – | –
3 | COc1cc2c(cc1O)C(=NOCc1ccc([N+](=O)[O-])cc1)C[C@@H]1[C@@H]2CC[C@]2(C)C(=NO)CC[C@@H]12 [CP-DM-3-91, 2-methoxy-6-(4-nitrobenzyloxy)iminoestrone-17-oxime] | – | 7.59 | 10.32 | 5.70 | <5.0 | 117.5 ± 8.5 (8) % control | considerably more potent than either 2MEO or 4NO | little or no detectable displacement | 4.26 | – | –
4 | C[C@]12CC[C@@H]3c4ccc(O)cc4CC[C@H]3[C@@H]1CC/C2=N\OCc1cccc([N+](=O)[O-])c1 [CP-DM-3-102, estrone-17-(3-nitrobenzyl)oxime] | – | – | 8.03 | 5.99 | – | – | – | – | – | 89.1 | 2400
5 | COc1cc2c(cc1O)/C(=N/OCc1cc(F)cc(F)c1)C[C@@H]1[C@@H]2CC[C@]2(C)[C@@H](O)CC[C@@H]12 [CP-DM-4-35, 6-(3,5-difluorobenzyloxy)imino-2-methoxyestradiol] | – | – | 7.80 | 5.75 | – | – | – | – | – | 141 | 5250
6 | COc1cc2c(cc1O)/C(=N/OCc1ccc(SC(F)(F)F)cc1)C[C@@H]1[C@@H]2CC[C@]2(C)[C@@H](O)CC[C@@H]12 [CP-DM-4-65, 2-methoxy-6-(4-trifluoromethylthiobenzyloxy)iminoestradiol] | – | – | – | – | – | – | – | – | – | 224 | 646
